Consider 20 compounds from PubChem BioAssay AID248 (DTP/NCI, 2004).

This test has as its system L1210 leukemia ip in BDF1 mice, survival T/C. The experiment in a line: NCI In Vivo Anticancer Drug Screen. Data for tumor model L1210 Leukemia (intraperitoneal) in B6D2F1 (BDF1) mice. The note with it: endpoint: mean survival time, higher = longer survival. In short, it runs like this:
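Value reflects the ratio of survival in compound-treated mice to survival in vehicle-treated controls, with both groups carrying the same transplanted tumor.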

Setting [1] is: dose: 10.0 mg/kg/injection, schedule: Q04DX003 (ip), vehicle: Klucel (hydroxypropylcellulose) (HPC).
Setting [2] is: dose: 20.0 mg/kg/injection, schedule: Q04DX003 (ip), vehicle: Klucel (hydroxypropylcellulose) (HPC).
Setting [3] is: dose: 100.0 mg/kg/injection, schedule: Q01DX001 (ip), vehicle: other.
The mark [4] stands for this setting: dose: 200.0 mg/kg/injection, schedule: Q01DX001 (ip), vehicle: other.
The mark [5] stands for this setting: dose: 200.0 mg/kg/injection, schedule: Q01DX001 (ip), vehicle: Klucel (hydroxypropylcellulose) (HPC).
Setting [6] is: dose: 400.0 mg/kg/injection, schedule: Q01DX001 (ip), vehicle: Klucel (hydroxypropylcellulose) (HPC).
[7] abbreviates: dose: 50.0 mg/kg/injection, schedule: Q01DX009 (ip), vehicle: Klucel (hydroxypropylcellulose) (HPC).
Setting [8] is: dose: 100.0 mg/kg/injection, schedule: Q01DX001 (ip), vehicle: saline with Tween-80.
[9] abbreviates: dose: 100.0 mg/kg/injection, schedule: Q01DX009 (ip), vehicle: Klucel (hydroxypropylcellulose) (HPC).
[10] abbreviates: dose: 100.0 mg/kg/injection, schedule: Q04DX002 (ip), vehicle: Klucel (hydroxypropylcellulose) (HPC).
Setting [11] is: dose: 200.0 mg/kg/injection, schedule: Q01DX001 (ip), vehicle: saline with Tween-80.
[12] abbreviates: dose: 200.0 mg/kg/injection, schedule: Q04DX002 (ip), vehicle: Klucel (hydroxypropylcellulose) (HPC).
Where [13] appears, read: dose: 400.0 mg/kg/injection, schedule: Q01DX001 (ip), vehicle: saline with Tween-80.
Setting [14] is: dose: 400.0 mg/kg/injection, schedule: Q04DX002 (ip), vehicle: Klucel (hydroxypropylcellulose) (HPC).

Values joined by “and” are separate entries in the source; they are usually repeats but may differ in a detail not shown here. Identical values can stand only once. Inconclusive results and toxic doses are left out.

Regarding `COc1nc(Br)ccc1/C=N\NC(N)=S`, the T/C runs as follows: under setting [1], 101 % of control; under setting [2], 95 % of control; (dose: 400.0 mg/kg/injection, schedule: Q04DX003 (ip), vehicle: Klucel (hydroxypropylcellulose) (HPC)) 98 % of control.

As to `COc1ccc(-c2[nH]c3ccccc3c2-c2ccc(OC)cc2)cc1`, the T/C is 89 % of control (dose: 100.0 mg/kg/injection, schedule: Q01DX001 (ip), vehicle: saline); 89 % of control (dose: 200.0 mg/kg/injection, schedule: Q01DX001 (ip), vehicle: saline); 95 % of control (dose: 400.0 mg/kg/injection, schedule: Q01DX001 (ip), vehicle: saline).

`O=C(O)c1ccccc1C(=O)Nc1ccccc1Cl`: the T/C reads like this: (dose: 100.0 mg/kg/injection, schedule: Q04DX003 (ip), vehicle: saline with Tween-80) 96 % of control; (dose: 200.0 mg/kg/injection, schedule: Q04DX003 (ip), vehicle: saline with Tween-80) 102 % of control; (dose: 400.0 mg/kg/injection, schedule: Q04DX003 (ip), vehicle: saline with Tween-80) 102 % of control.

Turning to `ClCc1nc2ccc(Cl)cc2[nH]1`, the T/C is, setting by setting: under setting [3], 104 % of control; under setting [4], 106 % of control.

Turning to `ClCCCNCCCCl`, the T/C (dose: 75.0 mg/kg/injection, schedule: Q01DX001 (ip), vehicle: saline) is 101 % of control and the T/C (dose: 150.0 mg/kg/injection, schedule: Q01DX001 (ip), vehicle: saline) is 97 % of control.

For `Cn1cnc2c(=O)[nH]nnc21`, the T/C runs as follows: (dose: 100.0 mg/kg/injection, schedule: Q01DX005 (ip), vehicle: saline) 96 % of control; (dose: 200.0 mg/kg/injection, schedule: Q01DX005 (ip), vehicle: saline) 112 % of control.

For `COC1C(CO)OC(n2cnc3c(N)ncnc32)C1O` (configuration not stated), the T/C (dose: 50.0 mg/kg/injection, schedule: Q01DX001 (ip), vehicle: carboxymethylcellulose (CMC)) is 102 % of control; the T/C (dose: 100.0 mg/kg/injection, schedule: Q01DX001 (ip), vehicle: carboxymethylcellulose (CMC)) was 110 % of control; the T/C (dose: 200.0 mg/kg/injection, schedule: Q01DX001 (ip), vehicle: carboxymethylcellulose (CMC)) was 116 % of control; the T/C (dose: 400.0 mg/kg/injection, schedule: Q01DX001 (ip), vehicle: carboxymethylcellulose (CMC)) is 98 % of control.

Consider `c1ccc(N/N=C(\C(=N\Nc2ccccc2)c2ccccc2)c2ccccc2)cc1`, for which the T/C was 87 % of control under setting [5] and 86 % of control under setting [6].

As for `O=C1OC(CN2CCOCC2)CN1/N=C/c1ccc([N+](=O)[O-])o1` (configuration not stated), the T/C runs as follows: (dose: 25.0 mg/kg/injection, schedule: Q01DX009 (ip), vehicle: Klucel (hydroxypropylcellulose) (HPC)) 104 % of control; under setting [7], 92 % of control; under setting [8], 97 % of control; under setting [9], 101 % of control; under setting [10], 310 % of control; (dose: 100.0 mg/kg/injection, schedule: Q04DX002 (ip), vehicle: saline) 105 % of control. For the same compound, the T/C reads like this: under setting [11], 97 % of control; under setting [12], 90 % of control; (dose: 200.0 mg/kg/injection, schedule: Q04DX002 (ip), vehicle: saline) 98 % of control; under setting [13], 104 % of control.

As for `COC(=O)NC1CC/C=C\CCC1I` (configuration not stated), where the note is “dose: 200.0 mg/kg/injection, schedule: Q04DX002 (ip), vehicle: DMSO”, the T/C is 102 % of control.

As for `c1ccc(N2CN(c3ccccc3)CN(c3ccccc3)C2)cc1`, the T/C is 97 % of control (dose: 100.0 mg/kg/injection, schedule: Q01DX001 (ip), vehicle: Klucel (hydroxypropylcellulose) (HPC)); 101 % of control under setting [10]; 92 % of control under setting [5]; 101 % of control under setting [12]; 92 % of control under setting [6]; 97 % of control under setting [14].

For `Cc1ccc(S(=O)(=O)SS(=O)(=O)c2ccc(C)cc2)cc1`, the T/C was 90 % of control (dose: 100.0 mg/kg/injection, schedule: Q04DX002 (ip), vehicle: saline with Tween-80); 90 % of control (dose: 200.0 mg/kg/injection, schedule: Q04DX002 (ip), vehicle: saline with Tween-80); 90 % of control (dose: 400.0 mg/kg/injection, schedule: Q04DX002 (ip), vehicle: saline with Tween-80).

Turning to `CCC(CCc1ccc(OC)c(OC)c1)C(=O)O` (configuration not stated), the T/C reads like this: under setting [8], 93 % of control; under setting [11], 98 % of control; under setting [13], 98 % of control.

In the case of `O=c1[nH]c2c(cc1Br)C(Br)C(Br)C=C2` (configuration not stated), the T/C under setting [3] was 105 % of control and the T/C under setting [4] was 108 % of control.

Turning to `O=C(Nc1ccc(F)cc1)NN1CCOCC1`, the T/C is, setting by setting: under setting [7], 104 % of control; under setting [9], 90 % of control; (dose: 200.0 mg/kg/injection, schedule: Q01DX009 (ip), vehicle: Klucel (hydroxypropylcellulose) (HPC)) 97 % of control.

Take `CC[n+]1cccc(NC(=O)c2ccc(NC(=O)c3ccc(C(=O)Nc4ccc(C(=O)Nc5ccc[n+](CC)c5)c(N)c4)cc3)cc2N)c1`: the T/C reads like this: (dose: 2.5 mg/kg/injection, schedule: Q01DX015 (ip), vehicle: other) 187 % of control; (dose: 5.0 mg/kg/injection, schedule: Q01DX015 (ip), vehicle: other) 264 % of control; (dose: 8.0 mg/kg/injection, schedule: Q01DX015 (ip), vehicle: other) 246 % of control; (dose: 10.0 mg/kg/injection, schedule: Q01DX015 (ip), vehicle: other) 150 % of control; (dose: 22.0 mg/kg/injection, schedule: Q01DX001 (ip), vehicle: other) 156 % of control; (dose: 22.0 mg/kg/injection, schedule: Q01DX015 (ip), vehicle: other) 114 % of control. Further, the T/C is 174 % of control (dose: 25.0 mg/kg/injection, schedule: Q01DX001 (ip), vehicle: other); 168 % of control (dose: 33.0 mg/kg/injection, schedule: Q01DX001 (ip), vehicle: other); 90 % of control (dose: 37.0 mg/kg/injection, schedule: Q01DX015 (ip), vehicle: other); 203 % of control (dose: 50.0 mg/kg/injection, schedule: Q01DX001 (ip), vehicle: other); 219 % of control (dose: 55.0 mg/kg/injection, schedule: Q01DX001 (ip), vehicle: other); 212 % of control (dose: 75.0 mg/kg/injection, schedule: Q01DX001 (ip), vehicle: other).

Take `Cc1cc2oc(=O)c(Cl)c(Cl)c2c(C)c1Cl`: the T/C is 105 % of control (dose: 10.0 mg/kg/injection, schedule: Q01DX001 (ip), vehicle: saline); 101 % of control (dose: 10.0 mg/kg/injection, schedule: Q01DX009 (ip), vehicle: Klucel (hydroxypropylcellulose) (HPC)); 86 % of control under setting [1]; 111 % of control (dose: 20.0 mg/kg/injection, schedule: Q01DX001 (ip), vehicle: saline); 101 % of control (dose: 20.0 mg/kg/injection, schedule: Q01DX009 (ip), vehicle: Klucel (hydroxypropylcellulose) (HPC)); 93 % of control under setting [2].

For `COc1cc(-c2nc(CCl)no2)cc(OC)c1OC`, the T/C under setting [10] was 95 % of control, the T/C under setting [12] is 104 % of control and the T/C under setting [14] is 104 % of control.

As to `O=C1C=CC(=O)c2c(O)c(CBr)c(CBr)c(O)c21`, the T/C is 101 % of control (dose: 6.25 mg/kg/injection, schedule: Q01DX009 (ip), vehicle: water); 92 % of control (dose: 12.5 mg/kg/injection, schedule: Q01DX009 (ip), vehicle: water); 93 % of control and 94 % of control (dose: 25.0 mg/kg/injection, schedule: Q01DX009 (ip), vehicle: water); 89 % of control (dose: 50.0 mg/kg/injection, schedule: Q01DX009 (ip), vehicle: water).

On to `Cc1cc(=O)c2c(C)ccc(C)c2[nH]1`, for which the T/C by setting is: under setting [3], 95 % of control; under setting [4], 91 % of control; (dose: 400.0 mg/kg/injection, schedule: Q01DX001 (ip), vehicle: other) 98 % of control.
